In PubChem BioAssay (NCI):
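Growth conditions: 96-well plates. Treatment: test compound, 48 hours, 5 concentrations. Analysis: linear interpolation between bracketing concentrations; unreached endpoints set to highest concentration. GI50 is the concentration that inhibits growth by half. TGI marks complete inhibition of growth.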

Tests used:
Assay in all cases: NCI anticancer screen, dose series, 48 h
MOLT-4 leukemia = tested on: MOLT-4 leukemia
TK-10 renal = tested on: TK-10 renal
SN12C renal = tested on: SN12C renal
RPMI-8226 leukemia = tested on: RPMI-8226 leukemia
K-562 leukemia = tested on: K-562 leukemia
OVCAR-4 ovarian = tested on: OVCAR-4 ovarian
HCT-15 colon = tested on: HCT-15 colon
NCI-H23 lung = tested on: NCI-H23 lung
NCI/ADR-RES ovarian = tested on: NCI/ADR-RES ovarian
MDA-MB-231 breast = tested on: MDA-MB-231 breast

## O/N=C1/C(=C/c2ccc(Br)cc2)CCCC1C(NO)c1ccc(Br)cc1 (stereo not drawn)
MOLT-4 leukemia
  TGI: 31.7 µM
TK-10 renal
  TGI: 33 µM
SN12C renal
  TGI: 24.9 µM
RPMI-8226 leukemia
  TGI: 48.4 µM
K-562 leukemia
  TGI: > 100 µM
OVCAR-4 ovarian
  TGI: 23.3 µM
HCT-15 colon
  TGI: 31.8 µM

## O=Cc1cc2sc(C=O)cc2s1
MOLT-4 leukemia
  TGI: > 100 µM
NCI-H23 lung
  TGI: > 100 µM
TK-10 renal
  TGI: > 100 µM
SN12C renal
  TGI: > 100 µM
RPMI-8226 leukemia
  TGI: > 100 µM
K-562 leukemia
  TGI: > 100 µM
OVCAR-4 ovarian
  TGI: > 100 µM
HCT-15 colon
  TGI: > 100 µM

## CC1O[C@@H]2CCCCC(=O)[C@]2(C)[C@H]1C (stereo partly drawn)
MOLT-4 leukemia
  TGI: > 100 µM
TK-10 renal
  TGI: > 100 µM
SN12C renal
  TGI: > 100 µM
RPMI-8226 leukemia
  TGI: > 100 µM
K-562 leukemia
  TGI: > 100 µM
OVCAR-4 ovarian
  TGI: > 100 µM
HCT-15 colon
  TGI: > 100 µM

## Cc1cc(C2CC(O)C(CO)O2)c(Br)cc1Br (stereo not drawn)
NCI/ADR-RES ovarian
  GI50: > 100 µM
  TGI: > 100 µM
NCI-H23 lung
  GI50: > 100 µM
  TGI: > 100 µM
TK-10 renal
  GI50: > 100 µM
  TGI: > 100 µM
SN12C renal
  GI50: > 100 µM
  TGI: > 100 µM
RPMI-8226 leukemia
  GI50: 85.8 µM
  TGI: > 100 µM
K-562 leukemia
  GI50: > 100 µM
  TGI: > 100 µM
MDA-MB-231 breast
  GI50: 58.5 µM
  TGI: > 100 µM
HCT-15 colon
  GI50: > 100 µM
  TGI: > 100 µM

## Cc1cc(NCCCCCCCCNc2cc(C)nc3cc(N(C)C)ccc23)c2ccc(N(C)C)cc2n1
MOLT-4 leukemia
  TGI: > 100 µM
NCI-H23 lung
  TGI: 15.2 µM
SN12C renal
  TGI: 21.5 µM
RPMI-8226 leukemia
  TGI: 17.2 µM
K-562 leukemia
  TGI: 28.5 µM
OVCAR-4 ovarian
  TGI: 21.6 µM
HCT-15 colon
  TGI: > 100 µM

## Cc1ccccc1C1SCc2nc3ccccc3n21 (stereo not drawn)
NCI-H23 lung
  TGI: > 100 µM
TK-10 renal
  TGI: > 100 µM
SN12C renal
  TGI: > 100 µM
RPMI-8226 leukemia
  TGI: > 100 µM
K-562 leukemia
  TGI: > 100 µM

## O=C(C#Cc1ccccc1)N1CCCCC1
MOLT-4 leukemia
  TGI: > 100 µM
NCI-H23 lung
  TGI: > 100 µM
TK-10 renal
  TGI: > 100 µM
SN12C renal
  TGI: > 100 µM
RPMI-8226 leukemia
  TGI: > 100 µM
K-562 leukemia
  TGI: > 100 µM
OVCAR-4 ovarian
  TGI: > 100 µM
MDA-MB-231 breast
  TGI: > 100 µM
HCT-15 colon
  TGI: > 100 µM

## CC1NCCC(CC(=O)O)C1CC(=O)O (stereo not drawn)
NCI/ADR-RES ovarian
  TGI: > 100 µM
NCI-H23 lung
  TGI: > 100 µM
TK-10 renal
  TGI: > 100 µM
SN12C renal
  TGI: > 100 µM
RPMI-8226 leukemia
  TGI: > 100 µM
K-562 leukemia
  TGI: > 100 µM
OVCAR-4 ovarian
  TGI: > 100 µM
MDA-MB-231 breast
  TGI: > 100 µM
HCT-15 colon
  TGI: > 100 µM

## Cc1cc(S(=O)(=O)Nc2nc3ccccc3s2)c(SCc2ccccc2)cc1Cl
NCI/ADR-RES ovarian
  GI50: 15.8 µM
  TGI: 35.9 µM
NCI-H23 lung
  GI50: 13.8 µM
  TGI: 26.7 µM
TK-10 renal
  GI50: 14.1 µM
  TGI: 44.7 µM
SN12C renal
  GI50: 14.3 µM
  TGI: 28.6 µM
RPMI-8226 leukemia
  GI50: 9.25 µM
  TGI: 37.2 µM
K-562 leukemia
  GI50: 15.6 µM
  TGI: > 100 µM
OVCAR-4 ovarian
  GI50: 13.2 µM
  TGI: 51.8 µM
MDA-MB-231 breast
  GI50: 16.9 µM
  TGI: 37.7 µM
HCT-15 colon
  GI50: 15.2 µM
  TGI: 30.8 µM

## COc1cccc(/C=C/C(=O)c2cc3c(N)c(C(=O)Nc4ccccc4)sc3nc2C)c1
MOLT-4 leukemia
  GI50: 1.59 µM
  TGI: > 50 µM
NCI-H23 lung
  GI50: 1.2 µM
  TGI: 3.05 µM
TK-10 renal
  GI50: 1.56 µM
  TGI: 5.47 µM
SN12C renal
  GI50: 1.12 µM
  TGI: 2.78 µM
RPMI-8226 leukemia
  GI50: 1.18 µM
  TGI: 2.54 µM
K-562 leukemia
  GI50: 1.47 µM
  TGI: > 50 µM
OVCAR-4 ovarian
  GI50: 1.78 µM
  TGI: > 50 µM
MDA-MB-231 breast
  GI50: 1.79 µM
  TGI: 11.7 µM
HCT-15 colon
  GI50: 1.16 µM
  TGI: 3.37 µM

## C/C(COc1ccccc1)=N\NC(N)=S
MOLT-4 leukemia
  TGI: > 100 µM
NCI-H23 lung
  TGI: > 100 µM
TK-10 renal
  TGI: > 100 µM
SN12C renal
  TGI: > 100 µM
RPMI-8226 leukemia
  TGI: > 100 µM
K-562 leukemia
  TGI: > 100 µM
OVCAR-4 ovarian
  TGI: > 100 µM
HCT-15 colon
  TGI: > 100 µM

## CN1C(=O)CC(CC(=O)C2CCCCC2=O)CC1=O (stereo not drawn)
MOLT-4 leukemia
  TGI: > 100 µM
NCI-H23 lung
  TGI: > 100 µM
TK-10 renal
  TGI: > 100 µM
SN12C renal
  TGI: > 100 µM
RPMI-8226 leukemia
  TGI: > 100 µM
K-562 leukemia
  TGI: > 100 µM
OVCAR-4 ovarian
  TGI: > 100 µM

## NC1=NN(c2ccccc2)C(=O)C1/C(=N\NC(=O)c1cc2ccccc2cc1O)C(=O)Nc1ccc(Cl)c(Cl)c1 (stereo not drawn)
MOLT-4 leukemia
  TGI: 75.6 µM
NCI-H23 lung
  TGI: 63.5 µM
TK-10 renal
  TGI: > 100 µM
SN12C renal
  TGI: > 100 µM
RPMI-8226 leukemia
  TGI: > 100 µM
K-562 leukemia
  TGI: > 100 µM
OVCAR-4 ovarian
  TGI: > 100 µM
HCT-15 colon
  TGI: > 100 µM

## CN(N=O)N1C(=O)SCC(c2ccccc2)(c2ccccc2)C1=O
NCI/ADR-RES ovarian
  TGI: > 100 µM
MOLT-4 leukemia
  TGI: > 100 µM
NCI-H23 lung
  TGI: > 100 µM
TK-10 renal
  TGI: > 100 µM
SN12C renal
  TGI: > 100 µM
RPMI-8226 leukemia
  TGI: 67.6 µM
K-562 leukemia
  TGI: > 100 µM
MDA-MB-231 breast
  TGI: > 100 µM
HCT-15 colon
  TGI: > 100 µM

## Clc1cc2ns[s+]c2cc1Cl
MOLT-4 leukemia
  TGI: > 100 µM
NCI-H23 lung
  TGI: > 100 µM
TK-10 renal
  TGI: 98.9 µM
SN12C renal
  TGI: > 100 µM
RPMI-8226 leukemia
  TGI: > 100 µM
K-562 leukemia
  TGI: > 100 µM
OVCAR-4 ovarian
  TGI: > 100 µM
HCT-15 colon
  TGI: > 100 µM

## Nc1ncnc2c1ncn2Cc1ccc(CCl)cc1
NCI/ADR-RES ovarian
  GI50: 18.7 µM
  TGI: 44.5 µM
NCI-H23 lung
  GI50: 17.5 µM
  TGI: 37.6 µM
TK-10 renal
  GI50: 18.1 µM
  TGI: 65.7 µM
SN12C renal
  GI50: 21.2 µM
  TGI: 35.6 µM
RPMI-8226 leukemia
  GI50: 15.1 µM
  TGI: > 100 µM
K-562 leukemia
  GI50: 14.9 µM
  TGI: > 100 µM
OVCAR-4 ovarian
  GI50: 19.4 µM
  TGI: 38.3 µM
MDA-MB-231 breast
  GI50: 17.5 µM
  TGI: 35.8 µM
HCT-15 colon
  GI50: 21.9 µM
  TGI: 41.5 µM

## O=C(Nc1ccn(C2CCC(COC(c3ccccc3)(c3ccccc3)c3ccccc3)O2)c(=O)n1)c1ccccc1 (stereo not drawn)
NCI/ADR-RES ovarian
  TGI: 8.73 µM
MOLT-4 leukemia
  TGI: 5.16 µM
NCI-H23 lung
  TGI: 7.8 µM
SN12C renal
  TGI: 4.33 µM
RPMI-8226 leukemia
  TGI: 5.21 µM
K-562 leukemia
  TGI: 7.97 µM
OVCAR-4 ovarian
  TGI: 7.71 µM
MDA-MB-231 breast
  TGI: 13.9 µM
HCT-15 colon
  TGI: 11.2 µM

## CC1=NN(c2ccccc2)C(=O)C1N=Nc1ccc(Br)cc1C (stereo not drawn)
MOLT-4 leukemia
  TGI: > 100 µM
NCI-H23 lung
  TGI: > 100 µM
TK-10 renal
  TGI: > 100 µM
SN12C renal
  TGI: > 100 µM
RPMI-8226 leukemia
  TGI: > 100 µM
K-562 leukemia
  TGI: > 100 µM
OVCAR-4 ovarian
  TGI: > 100 µM
HCT-15 colon
  TGI: > 100 µM

## Cc1c2cc[n+](C)cc2c(C)c2c1[nH]c1ccc(OC(C)(C)C)cc12
MOLT-4 leukemia
  TGI: > 100 µM
NCI-H23 lung
  TGI: > 100 µM
TK-10 renal
  TGI: > 100 µM
SN12C renal
  TGI: > 100 µM
RPMI-8226 leukemia
  TGI: > 100 µM
K-562 leukemia
  TGI: > 100 µM
OVCAR-4 ovarian
  TGI: > 100 µM
HCT-15 colon
  TGI: > 100 µM

## O=C(O)[C@@H](Cc1ccccc1)NS(=O)(=O)c1ccc(-c2ccccc2)cc1
NCI/ADR-RES ovarian
  GI50: > 100 µM
  TGI: > 100 µM
MOLT-4 leukemia
  GI50: > 100 µM
  TGI: > 100 µM
NCI-H23 lung
  GI50: > 100 µM
  TGI: > 100 µM
TK-10 renal
  GI50: > 100 µM
  TGI: > 100 µM
SN12C renal
  GI50: > 100 µM
  TGI: > 100 µM
K-562 leukemia
  GI50: > 100 µM
  TGI: > 100 µM
OVCAR-4 ovarian
  GI50: > 100 µM
  TGI: > 100 µM
MDA-MB-231 breast
  GI50: > 100 µM
  TGI: > 100 µM
HCT-15 colon
  GI50: > 100 µM
  TGI: > 100 µM

## O=C(NNC(=O)/C(=C/c1cccc([N+](=O)[O-])c1)NC(=O)c1ccccc1)Nc1ccc(Cl)cc1
MOLT-4 leukemia
  TGI: 25.2 µM
NCI-H23 lung
  TGI: 30.3 µM
TK-10 renal
  TGI: 31.7 µM
SN12C renal
  TGI: 28.2 µM
RPMI-8226 leukemia
  TGI: 38.9 µM
K-562 leukemia
  TGI: 36.1 µM
OVCAR-4 ovarian
  TGI: 26.9 µM
HCT-15 colon
  TGI: 24.7 µM
